Two compounds from PMC6152666, “Five New Limonoids from Peels of Satsuma Orange (Citrus reticulata)” (Molecules : A Journal of Synthetic Chemistry and Natural …, 2017) can be followed below.

Series [1] deals with NO production in RAW264.7 mouse macrophages stimulated by lipopolysaccharide (LPS). The series can be described thus: Inhibitory assay of NO production in LPS-stimulated RAW264.7 macrophages. It is filed as cell-based. The settings on record: for activity at 1 µM / activity at 3 µM / activity at 10 µM / activity at 30 µM / IC50: Mus musculus, RAW264.7 + LPS 5 μg/mL, 24 h; for activity at 1 µM / activity at 3 µM / activity at 10 µM / activity at 30 µM: vehicle control = 100%, mean ± S.E., n=4; for activity at 1 µM / activity at 3 µM / activity at 10 µM: read-out: Inhibitory Ratio of NO %; for activity at 30 µM: read-out: Inhibitory Ratio of NO % (produced NO ratio). The text has this: Macrophages may be a potential therapeutic target for inflammatory diseases. Activated macrophages release pro-inflammatory mediators, such as NO, reactive oxygen species, interleukin-1β, tumor necrosis factor-α, and other inflammatory mediators, which play important roles in biological defense. However, the overexpression of these mediators had been implicated in diseases such as osteoarthritis, rheumatoid arthritis, and diabetes because the increased production of pro-inflammatory mediators induces severe or chronic inflammation. Isolated compounds (1–12), and N^G-monomethyl-L-arginine, acetate (L-NMMA), which is a NO synthase inhibitor and was used as a positive control, were evaluated for macrophage activation by the inhibitory assay of NO production in RAW264.7 mouse macrophages stimulated by lipopolysaccharide (LPS).
(§1) RAW264.7 cells were grown in D-MEM medium supplemented with 10% FBS and antibiotics (100 units/mL penicillin G sodium salt and 100 μg/mL streptomycin sulfate). Cells were incubated at 37 °C in a 5% CO2 humidified incubator.
An inhibitory assay of NO production was performed according to a method reported previously with slight modifications. Briefly, RAW264.7 cells (5 × 10^4 cells in 100 μL) were seeded into a 96-well microplate and incubated for 24 h. DMEM containing test samples (100 μL total volume, final concentration of 30, 10, 3, or 1 μM) dissolved in DMSO (final concentration 0.2%), and LPS (final concentration of 5 μg/mL), was added. After treatment for 24 h, the supernatant of culture medium was transferred to another 96-well microplate, and then 50 μL of 0.15% N-(1-naphtyl)ethylenediamine in H2O, and 1.5% sulfanilamide in 7.5% phosphoric acid were added. After incubation for 30 min, the absorbance of each well was read at 570 nm using a microplate reader. The optical density of vehicle control cells was assumed to be 100%.

A short description of series [2]: Cytotoxicity assay (MTT) in RAW264.7 cells. Type of series: cell-based, mouse. The settings on record: mouse, RAW264.7 cells, RAW264.7, MTT, 24 h, vehicle control = 100%, mean ± S.E., n=4, read-out: Cell Viability %. The method, then:
as §1
(§2) Cytotoxicity assay was performed according to a method reported previously Briefly, RAW264.7 cells (5 × 10^4 cells in 100 μL) were seeded onto a 96-well microplate and incubated for 24 h. DMEM containing test samples (100 μL total volume, final concentration of 30, 10, 3, or 1 μM) dissolved in DMSO (final concentration 0.2%) was added. After treatment for 24 h, MTT solution was added. After a 3-h incubation, 20% sodium dodecyl sulfate in 0.1 M HCl was added to dissolve the formazan produced in the cells. The absorbance of each well was read at 570 nm using a microplate reader. The optical density of vehicle control cells was assumed to be 100%.

For another series, the system named is RAW264.7 cells. As to the kind of experiment: Cytotoxicity assay (MTT) in RAW264.7 cells. The settings on record: RAW264.7, 1–30 μM. It is filed as cell-based, mouse. The method, then:
as §1, §2

Entries after “also recorded” stand apart in the source; their conditions may differ.

As for `CC(=O)O[C@H]1CC(=O)OC(C)(C)[C@@H]2CC(=O)[C@]3(C)[C@H](CC[C@@]4(C)[C@H](C5=CC(=O)OC5O)OC(=O)[C@H]5O[C@]543)[C@@]12C` (stereo partly shown) [Compound 1, 21,23-dihydro-21-hydroxy-23-oxonomilin], the melting point was in the range of 200 to 201 °C. For the same compound, in series [1], the activity at 1 µM turned out to be 110 ± 2.8%, the activity at 3 µM came out at 111 ± 1.7%, the activity at 10 µM turned out to be 105 ± 2.2% and the activity at 30 µM was determined as 107 ± 2.5%. Further, the IC50 in series [1] is more than 30 µM. In series [2], the viability at 24 h, 1 µM came to 99.1%; the viability at 24 h, 3 µM came out at 102%; the viability at 24 h, 10 µM was determined as 104%; the viability at 24 h, 30 µM came to 99.3%.
For `COC1C=C([C@@H]2OC(=O)[C@H]3O[C@@]34[C@@]2(C)CC[C@@H]2[C@@]3(C)[C@@H](OC(C)=O)CC(=O)OC(C)(C)[C@@H]3CC(=O)[C@]24C)C(=O)O1` (stereo partly shown) [Compound 2, 21,23-dihydro-23-methoxy-21-oxonomilin], the melting point was 208 to 210 °C. Also, in series [1], the activity at 1 µM was 95.2 ± 1.6%, the activity at 3 µM amounted to 89.8 ± 2.1%, the activity at 10 µM is 80.4 ± 2.1% and the activity at 30 µM is 39.3 ± 0.5%. Further, in series [1], the IC50 was 25.4 µM. In series [1] (RAW264.7 + LPS, 1–30 μM), the “inhibitory effect on NO production (in words)” value is on record as “exhibited NO inhibitory activity”. In series [2], the viability at 24 h, 1 µM came out at 101%; the viability at 24 h, 3 µM came out at 98.7%; the viability at 24 h, 10 µM was found to be 99.1%; the viability at 24 h, 30 µM is 94.5%. The “cytotoxicity (in words)” value with RAW264.7 cells is given as “without cytotoxicity; also recorded: without cytotoxicities”.
